“Also recorded” adds a separate entry of the source.
Columns and labels:
[1] = system: A/Netherlands/602/2009 (H1N1) (NL/09) virus; assay type: in vivo, BALB/c mice; details: 7 days
HPV16-L1 VLPs = system: HPV16-L1 VLPs; design: species or system BALB/c mice; details: mouse, in vivo
RSV A2 = assay type: in vivo, Balb/c mice; details: IM days 0 and 21, RSV A2 challenge, lung four days after challenge (day 39)
[2] = system: A/Netherlands/602/2009 (H1N1) (NL/09) virus; assay: Lung tissue histology inflammation scoring after NL/09 challenge; assay type: in vivo, BALB/c mice; details: 0.04 ug rHA alone or with 100 ug Alum or 50 ug PHAD/BECC, prime-boost
Method: Staining of lung tissue was performed by the UMB EM and Histology Laboratory to assess any histological signs and potential clearing of viral infection. 4% Paraformaldehyde-fixed (Sigma-Aldrich, St Louis, Mo.) lungs were embedded in paraffin and sectioned before staining with haematoxylin and eosin (H&E). Representative slides were selected to most accurately portray the condition of the lungs within each group of vaccinated mice. Pathology scoring was performed by Dr (LT) Robert Kitz, Anatomic Pathologist, Walter Reed National Military Medical Center, Bethesda, Md. Lung sections from each mouse were scored based on overall inflammation using the following scoring parameters (group scores averaged): 0=no inflammation, 1=scant inflammation (<5% multifocal or one small focus); 2=prominent inflammation, <25% parenchyma; 3=prominent inflammation, 25-50% parenchyma; 4=diffuse inflammation, 50-75% parenchyma; 5=diffuse inflammation, >75% parenchyma.

Cal/09 rHA = system: Cal/09 rHA; design: species or system BALB/c mice; details: mouse, in vivo
[3] = reported in literature (21); cited from earlier work

With “phosphorylated hexa-acyl disaccharide [PHAD]” the average weight loss [1] was 10%, the “L1 ELISA Ab levels” value (HPV16-L1 VLPs) was “greater L1 ELISA Ab levels compared to alum alone” and the “protection by lung viral titers” value (RSV A2) was “full protection in the lower respiratory tract”. For the same molecule, the “histological inflammation scoring of lung” value [2] was “low inflammation scores with minimal bronchiolar or periarterial inflammation”, the “Day 28 total serum IgG antibody titer” value (Cal/09 rHA) was “significant difference between the HA alone and PHAD groups; also recorded: somewhat higher” and the “HA-specific IgG2a titer” value (Cal/09 rHA) was “significantly higher than sham”.
In the case of `CCCCCCCCCCCCCC(=O)O[C@H](CCCCCCCCCCC)CC(=O)O[C@@H]1[C@@H](NC(=O)C[C@H](CCCCCCCCCCC)OC(=O)CCCCCCCCCCCCC)[C@H](OC[C@H]2O[C@H](O)[C@H](NC(=O)C[C@H](O)CCCCCCCCCCC)[C@@H](OC(=O)C[C@H](O)CCCCCCCCCCC)[C@@H]2O)O[C@H](CO)[C@H]1OP(=O)(O)O` [GLA, glucopyranosyl lipid-A], the “particle size of aqueous formulation” value [3] is listed as 90 nm.
